Data from patent publication US20230052298A1, “LACTIC ACID BACTERIUM FERMENTATION PROMOTER” (MEIJI CO., LTD., priority 2019, published 2023).

Tests used:
[1] = system: Lactobacillus delbrueckii subsp. bulgaricus OLL1073R-1; assay: Test Example 9: EPS production during culture; format: cell-based; conditions: 4 mM added; strain OLL1073R-1; 37° C.; compared with the control
Protocol: Frozen bacteria of Lactobacillus delbrueckii subsp. bulgaricus OLL1073R-1 were prepared.
Raw material components other than anhydrous crystalline glucose were dissolved in Elix water, the mixture was adjusted to pH 6.65 using sodium hydroxide, and then diluted in measuring flask to 70 wt % of the charge amount of the medium. Anhydrous crystalline glucose was dissolved in Elix water, and diluted in measuring flask to 30 wt % of the charge amount of the medium.
In addition, the raw material components other than sugar solution and sugar were sterilized separately by heating at 110° C. for 1 minute in an autoclave and then aseptically mixed and used.
An aliquot of 1.5 kg of the above medium was adjusted to pH 5.4 using 6 N potassium carbonate, to the medium, 0.30 mass % of frozen bacteria (with respect to the amount of medium) was inoculated, and the bacteria were cultured at 37° C. while top ventilating with nitrogen at a flow rate of 0.5 L/min and stirring under the condition of 150 rpm.
The EPS concentration was measured under the following conditions. […]
The supernatant was removed by centrifuging (4° C., 13400 g, 20 min), and 20 ml of cooled 66% ethanol was added thereto to suspend the precipitate. […] The EPS concentration of the analysis sample was measured by the phenol-sulfuric acid method.

[2] = system: L. delbrueckii subsp. bulgaricus 2038; assay: Test Example 2-1: fermentation time versus concentration of malic acid or fumaric acid; format: cell-based, Lactobacillus delbrueckii subsp. bulgaricus; conditions: L. bulgaricus 2038; from Tables 3 and 4
Protocol: The fermentation was carried out using a fermentation medium (raw material milk). The fermentation medium was prepared by adding formic acid to the 10% reduced skim milk medium so as to give a final concentration of 1 mM, and then sterilizing the mixture at 95° C., and was used. […] In the above fermentation medium, a lactic acid bacterial starter of […] was inoculated at 0.5% (with respect to the amount of fermentation medium), statically cultured at 40° C., and fermented. The fermentation time was the time required for the medium to reach pH 4.6.

[3] = system: Lactobacillus delbrueckii subsp. bulgaricus; assay: Test Example 2-2: organic acid concentration in fermentate at completion of fermentation, formic acid medium; format: cell-based; conditions: 1 mM additive, 1 mM formic acid medium
Protocol: The strains shown in Tables 6 and 7 were precultured in the preculture medium and then used. The activation medium used was a 10 mass % reduced skim milk medium containing 0.1 mass % yeast extract, sterilized at 121° C. for 7 minutes. Here, the 10 mass % reduced skim milk medium is a 10 mass % aqueous solution of skim milk powder (fat 1 mass %, protein 34 mass %, lactose 54 mass %, ash 8 mass %, non-fat milk solid 96 mass %) (manufactured by Meiji Co., Ltd.) (in the above medium, lactose 5.4 mass %, non-fat milk solid 9.6 mass %). Frozen bacteria were added to the above-mentioned activation medium in an amount of 0.1 mass % (with respect to the amount of the activation medium) and statically cultured at 37° C. for 16 hours to obtain an activation solution. An aliquot of 0.1 mass % of the activation solution obtained (with respect to the amount of activation medium) was added to another activation medium, and the mixture was allowed to stand at 37° C. for 16 hours to obtain a lactic acid bacterial starter. Then, fermentation was carried out using a fermentation medium as raw material milk. The fermentation medium was prepared by adding formic acid to the 10 mass % reduced skim milk medium so as to give a final concentration of 1 mM, and then sterilizing the mixture at 95° C., and was used. […] The pH of the fermentation medium was about 6.4. The lactic acid bacterial starter of each strain obtained above was inoculated into the fermentation medium in an amount of 2.5 mass % (with respect to the amount of the fermentation medium), statically cultured at 40° C., and fermented. The fermentation time was the time required for the medium to reach pH 4.6. The pH value was measured using a commercially available pH meter.

[4] = system: L. delbrueckii subsp. bulgaricus 2038; assay: Test Example 2-1: organic acid concentrations after fermentation (HPLC); format: cell-based, Lactobacillus delbrueckii subsp. bulgaricus; conditions: strain 2038
Protocol: The fermentation was carried out using a fermentation medium (raw material milk). The fermentation medium was prepared by adding formic acid to the 10% reduced skim milk medium so as to give a final concentration of 1 mM, and then sterilizing the mixture at 95° C., and was used. […] In the above fermentation medium, a lactic acid bacterial starter of […] was inoculated at 0.5% (with respect to the amount of fermentation medium), statically cultured at 40° C., and fermented. The fermentation time was the time required for the medium to reach pH 4.6. The measurement of the organic acid concentration after the completion of fermentation was carried out as follows. An aliquot of 0.4 g of the fermentate obtained (fermented milk) was diluted by 2-fold with pure water, 20 μL of Carrez's Reagent I (53.5% (w/v) zinc sulfate) was added thereto and the mixture was vortexed, and 20 μl of Carrez's Reagent II (17.2% (w/v) potassium ferrocyanide) was added thereto and the mixture was vortexed. The resulting mixture was centrifuged at 4° C., 20620 g for 10 minutes, and the supernatant was filtered through a 0.22 μm filter and the filtrate was analyzed under the conditions shown in Table 2.

[5] = No addition of L. delbrueckii subsp. bulgaricus

Compound | EPS concentration with the culturing time (FIG. 1) [1] | Concentrations at which a fermentation promoting effect was confirmed [2] | Concentration of malic acid [3, 5] | Concentration of succinic acid [3, 5] | Concentration of succinic acid in fermentate at completion of fermentation (pH 4.6) ([3]; strain 2038) | Concentration of succinic acid in fermentate at completion of fermentation (pH 4.6) ([3]; strain OLL1073R-1) | Concentration of succinic acid in fermentate at completion of fermentation (pH 4.6) ([3]; strain OLL1171) | Concentration of succinic acid in fermentate at completion of fermentation (pH 4.6) ([3]; strain OLL1247) | Concentration of succinic acid in fermentate at completion of fermentation (pH 4.6) ([3]; strain OLL1255) | Concentration of succinic acid in fermentate at completion of fermentation (pH 4.6) ([3]; strain OLL205013) | Concentration of succinic acid in fermentate at completion of fermentation (pH 4.6) ([3]; strain P1902901) | Concentration of fumaric acid ([4]; 1 mM added) | Concentration of malic acid ([4]; 1 mM added) | also measured
O=C(O)/C=C/C(=O)O [Fumaric acid, fumaric acid] | higher concentration compared with the control | 0.01 to 2.5 mM | 0.11 mM | 0.07 mM | 1.67 mM | 1.73 mM | 1.58 mM | 1.72 mM | 1.49 mM | 1.54 mM | 1.59 mM | 0.00 mM | 0.00 mM | Concentration of fumaric acid [3, 5]: 1.11 mM; Concentration of fumaric acid in fermentate at completion of fermentation (pH 4.6) ([3]; strain OLL1255): 0.15 mM
O=C(O)CC(O)C(=O)O (stereo not drawn) [Malic acid, malic acid] | higher concentration compared with the control | 0.01 to 50 mM | 0.99 mM | 0.08 mM | 1.71 mM | 1.67 mM | 1.57 mM | 1.67 mM | 1.03 mM | 1.55 mM | 1.59 mM | 0.00 mM | 0.00 mM | Concentration of malic acid in fermentate at completion of fermentation (pH 4.6) ([3]; strain OLL1255): 0.35 mM; Concentration of succinic acid ([4]; 1 mM added): 1.94 mM; Concentration of fumaric acid ([4]; 10 mM added): 0.03 mM; Concentration of malic acid ([4]; 10 mM added): 4.27 mM; Concentration of succinic acid ([4]; 10 mM added): 5.78 mM; Concentration of fumaric acid ([4]; 50 mM added): 0.21 mM; Concentration of malic acid ([4]; 50 mM added): 42.05 mM; Concentration of succinic acid ([4]; 50 mM added): 9.84 mM
